Measurements: US20180265877A1, “METHODS AND COMPOSITIONS FOR AGROBACTERIUM COMPRISING NEGATIVE SELECTION MARKERS” (PIONEER HI-BRED INTERNATIONAL, INC., priority 2015, published 2018)

How the values were obtained:
AGL0 THY− = experiment: Agrobacterium growth assay on solid medium, thymidine auxotroph AGL0 THY−; assay type: cell-based; settings: thy 50 mg/l, 5-fluorouracil 0 μg/ml, after 24 hours
Experimental: (§1) In Table 4, results of a more detailed kill-curve for strain AGL0 on 5-fluorouracil are shown. […] Finally, a third experiment was performed using either wild-type AGL0 or an auxotrophic mutant of AGL0 in which the gene encoding thymidylate synthase was inactivated, rendering the bacteria incapable of growth in the absence of thymidine (this strain was referred to as AGL0 THY−). The two strains were plated at high densities (10^6 or 10^8 CFU/plate) onto medium containing 0, 1 or 3 μg/ml 5-fluorouracil, with each of these three treatments containing either 0 or 50 mg/l thymidine.

[1] = system: AGL0 mutant strain (THY−/codA+); experiment: Growth of AGL0 THY−/codA+ on 5-fluorocytosine; assay type: cell-based, Agrobacterium
Experimental: (§2) The newly developed AGL0 mutant strain (THY−/codA+, see Example 1) was plated on varying concentrations of 5-fluorocytosine to assess growth. This strain, along with wild-type AGL0 were cultured overnight in liquid medium, diluted to 10^7 CFU and then 100 μl of suspension was plated onto minimal Agro medium+/− thymidine, with either 0, 100, 200 or 300 μg/ml 5-fluorocytosine, for a total of 8 treatments. After 72 hours at 28° C., the plates were scored for Agrobacterium growth.

[2] = system: Agrobacterium strain AGL0; experiment: Agrobacterium growth assay on solid minimal medium, wild-type AGL0; assay type: cell-based; set-up: key to Growth score: a score of zero (0) indicating no visible colonies; 1+ indicating a few isolated colonies; ++: progressing up to 5+; +++: progressing up to 5+; ++++: progressing up to 5+; +++++: 5+ indicating a confluent lawn
Experimental: (§3) For all Agrobacterium growth-assay experiments, standard Agrobacterium minimal medium was used, with no additives as a control treatment, or with the addition of either 5-fluorocytosine, 5-fluorouracil or thymidine. To begin these tests, experiments were conducted to test for growth of wild-type and mutant AGL0 Agrobacterium strains on either 5-fluorocytosine (5-fluorocytosine, the non-toxic substrate of the CODA protein) or 5-fluorouracil (5-fluorouracil, the toxic product).
as §1, §2

[3] = system: Agrobacterium strain EHA105; experiment: Agrobacterium growth assay on solid minimal medium, EHA105; assay type: cell-based; set-up: key: a score of zero (0) indicating no visible colonies; 1+ indicating a few isolated colonies; ++: progressing up to 5+; +++: progressing up to 5+; ++++: progressing up to 5+; +++++: 5+ indicating a confluent lawn; settings: EHA105 plated at 1 × 10^4, after 3 days
Experimental: as §3

[4] = system: Agrobacterium strain LBA4404; experiment: Agrobacterium growth assay on solid minimal medium, LBA4404; assay type: cell-based; set-up: key: a score of zero (0) indicating no visible colonies; 1+ indicating a few isolated colonies; ++: progressing up to 5+; +++: progressing up to 5+; ++++: progressing up to 5+; +++++: 5+ indicating a confluent lawn; settings: LBA4404 plated at 1 × 10^4, after 3 days
Experimental: as §3

[5] = system: immature embryos of inbred PHH5G; experiment: Callus initiation from corn immature embryos, inbred PHH5G; assay type: cell-based; settings: for PHH5G: embryos producing a callus response / embryos plated / Embryo with culture - Response (callus initiation frequency): 18 d cultured on 13152C; for Embryo with culture - Response (callus initiation frequency): PHH5G
Experimental: (§4) Agrobacterium was tolerant of the substrate (5-fluorocytosine) and was inhibited by low levels of the converted product (5-fluorouracil). An experiment was performed to determine whether corn immature embryos and growing callus were sensitive to the substrate, 5-fluorocytosine. Immature embryos of two inbred lines ([…] or PHH5G, representative non-stiff-stalk and stiff-stalk Pioneer Hi-Bred inbreds) were plated onto appropriate callus culture media (see Table 6) supplemented with 0, 100, […]

[6] = system: four Agrobacterium strains (AGL0, LBA4404, EHA101 and EHA105); experiment: Agrobacterium growth assay, the four strains; assay type: cell-based; settings: 5-fluorocytosine up to the highest concentration tested (1000 μg/ml)
Experimental: as §3

[7] = system: Agrobacterium strain EHA101; experiment: Agrobacterium growth assay on solid minimal medium, EHA101; assay type: cell-based; set-up: key: a score of zero (0) indicating no visible colonies; 1+ indicating a few isolated colonies; ++: progressing up to 5+; +++: progressing up to 5+; ++++: progressing up to 5+; +++++: 5+ indicating a confluent lawn; settings: EHA101 plated at 1 x 10^4, after 3 days
Experimental: as §3

[8] = system: immature embryos of inbred HC69; experiment: Callus initiation from corn immature embryos, inbred HC69; assay type: cell-based; settings: for HC69: embryos producing a callus response / embryos plated / Embryo with culture - Response (callus initiation frequency): 18 d cultured on 13152C; for Embryo with culture - Response (callus initiation frequency): HC69
Experimental: as §4

Cc1cn([C@H]2C[C@H](O)[C@@H](CO)O2)c(=O)[nH]c1=O [thy, thymidine]
Growth score (AGL0 THY−; AGL0 THY- 1 x 10^6): +++ | Growth score (AGL0 THY−; AGL0 THY- 1 x 10^8): +++ | Growth ([1]; 50 mg/l thymidine, no 5-fluorocytosine, 72 hours): confluent lawn of colonies | Growth score ([2]; AGL0 1 x 10^6, thy 50 mg/l, 5-fluorouracil 0 μg/ml, after 24 hours): +++ | Growth score ([2]; AGL0 1 x 10^8, thy 50 mg/l, 5-fluorouracil 0 μg/ml, after 24 hours): +++

Nc1nc(=O)[nH]cc1F [5-fluorocytosine]
Growth score ([3]; 500 μg/ml 5-fluorocytosine): +++ | Growth score ([3]; 1000 μg/ml 5-fluorocytosine): +++ | Growth score ([4]; 500 μg/ml 5-fluorocytosine): +++ | Growth score ([4]; 1000 μg/ml 5-fluorocytosine): +++ | PHH5G: embryos producing a callus response / embryos plated ([5]; 100 μg/ml 5-fluorocytosine): 12/50 | PHH5G: embryos producing a callus response / embryos plated ([5]; 250 μg/ml 5-fluorocytosine): 18/50 | PHH5G: embryos producing a callus response / embryos plated ([5]; 400 μg/ml 5-fluorocytosine): 8/25 | Embryo with culture - Response (callus initiation frequency) ([5]; 100 μg/ml 5-fluorocytosine): 24% | Embryo with culture - Response (callus initiation frequency) ([5]; 250 μg/ml 5-fluorocytosine): 36% | Embryo with culture - Response (callus initiation frequency) ([5]; 400 μg/ml 5-fluorocytosine): 32% | Callus initiation frequency or callus growth rates vs no 5-fluorocytosine ([5]; inbred PHH5G, 100, 250 or 400 μg/ml 5-fluorocytosine, 3 weeks): no discernible differences | Growth ([1]; 100, 200 or 300 μg/ml 5-fluorocytosine, thymidine present, 72 hours at 28° C.): did not grow | Growth inhibition [6]: no apparent growth inhibition | Growth score ([2]; AGL0 plated at 1 × 10^4, 500 μg/ml 5-fluorocytosine, after 3 days): +++ | Growth score ([2]; AGL0 plated at 1 × 10^4, 1000 μg/ml 5-fluorocytosine, after 3 days): +++ | Growth score ([2]; AGL0 plated at 4 × 10^7, 500 μg/ml 5-fluorocytosine, after 3 days): +++++ | Growth score ([2]; AGL0 plated at 4 × 10^7, 1000 μg/ml 5-fluorocytosine, after 3 days): +++++ | Growth ([2]; wild-type AGL0, 100, 200 or 300 μg/ml 5-fluorocytosine, +/− thymidine, 72 hours at 28° C.): grew under all 5-fluorocytosine concentrations | Growth score ([7]; 500 μg/ml 5-fluorocytosine): +++ | Growth score ([7]; 1000 μg/ml 5-fluorocytosine): +++ | HC69: embryos producing a callus response / embryos plated ([8]; 100 μg/ml 5-fluorocytosine): 32/50 | HC69: embryos producing a callus response / embryos plated ([8]; 250 μg/ml 5-fluorocytosine): 34/50 | HC69: embryos producing a callus response / embryos plated ([8]; 400 μg/ml 5-fluorocytosine): 34/50 | Embryo with culture - Response (callus initiation frequency) ([8]; 100 μg/ml 5-fluorocytosine): 64% | Embryo with culture - Response (callus initiation frequency) ([8]; 250 μg/ml 5-fluorocytosine): 68% | Embryo with culture - Response (callus initiation frequency) ([8]; 400 μg/ml 5-fluorocytosine): 68% | Callus initiation frequency or callus growth rates vs no 5-fluorocytosine ([8]; inbred printed as HC96, 100, 250 or 400 μg/ml 5-fluorocytosine, 3 weeks): no discernible differences
